# In patent US20240262817A1, “QUINAZOLINE DERIVATIVES TARGETING R(CCUG) REPEATS IN MYOTONIC DYSTROPHY TYPE 2” (University of Florida Research Foundation, Incorporated, priority 2021, published 2024):
# Entries after “also recorded” stand apart in the source; their conditions may differ.
# Legend:
# [1] = system: CNBP mature mRNA in DM2 patient-derived fibroblasts; assay: CNBP mature mRNA levels via RT-qPCR in DM2 fibroblasts; assay type: cell-based
# Experimental: (§1) Cell lines and cell culture: Compounds were tested in two cell lines: (i) DM2 patient-derived fibroblasts (generous gift from University of Florida, Center for NeuroGenetics) and (ii) fibroblasts from a healthy donor (wild-type; WT GM07492; Coriell Institute). Cells were maintained at 37° ° C. with 5% CO2. DM2 fibroblasts were cultured in DMEM/high glucose (HyClone) supplemented with 20% FBS (Sigma) and 1% Antibiotic-Antimycotic solution (Corning). Wild-type fibroblasts were cultured in MEM (Corning) supplemented with 10% FBS, 1% Glutagro (Corning), and 1% Antibiotic-Antimycotic solution.
# (§2) Evaluation of CNBP abundance via RT-qPCR: CNBP abundance was evaluated as previously described.^10 Briefly, cells were grown in 6-well plates and treated with the desired compound in growth medium at 40% confluency. […] Approximately 1 μg of total RNA was reverse transcribed using a qScript cDNA synthesis kit (20 μL total reaction volume, Quanta BioSciences); 2 μL of the reverse transcription (RT) reaction was used for each primer pair (Table S1) for quantitative PCR with SYBR Green Master Mix, performed on a QuantStudio 5, 384-well Block Real-Time PCR System (Applied Biosciences). Relative abundance was determined by normalizing to GAPDH (n=6 replicates per concentration; 2 independent experiments).
# [2] = system: IR exon 11 alternative splicing in DM2 patient-derived fibroblasts; assay: Rescue of IR exon 11 splicing via RT-PCR in DM2 fibroblasts; assay type: cell-based
# Experimental: as §1
# (§3) Evaluation of pre-mRNA splicing via RT-PCR: Pre-mRNA splicing was analyzed as previously described.^10 Briefly, cells were grown in 6-well plates and treated with the desired compound in growth medium at ˜40% confluency. After 48 h, the cells were lysed, and total RNA was harvested using a Zymo Quick RNA Miniprep Kit. Approximately 1 μg of total RNA was reverse transcribed using a qScript cDNA synthesis kit (20 μL of total reaction volume, Quanta BioSciences); 2 μL of the RT reaction was used for PCR using GoTaq DNA polymerase (Promega). RT-PCR products were observed after 35 cycles of 95° C. for 30 s, 58° C. for 30s, 72 °C for 1 min, and a final extension at 72° C. for 5 min. Products were separated on a 2% agarose gel (110 V for 1 h in 13TBE buffer), visualized by staining with ethidium bromide, and imaged using a Typhoon 9410 variable mode imager. Gels were quantified using ImageJ. Percent rescue was calculated by dividing the difference between treated and untreated DM2 samples by the difference between untreated DM2 and WT samples (Equation 2).
# r(CCUG)12-MBNL1 complex = assay: TR-FRET assay, disruption of pre-formed r(CCUG)12-MBNL1 complex; assay type: biochemical; details: in vitro, read-out: IC50 for disrupting an r(CCUG)12-MBNL1 complex
# From the text: Of the 44 hits, 38 contained a similar substituted N2-phenylquinazoline-2,4-diamine core, while the other hits contained benzimidazoles and indazoles (Figure S2). Importantly, these 44 compounds are drug-like as they have similar physicochemical properties to the rest of the library and to known-drugs in Drug Bank (FIG. 2A). On average, the 44 hit compounds have a molecular weight of 327±35 g/mol, a cLogP of 3.2±0.9. TPSA of 76±15 Å, and 2.5±0.9 hydrogen bond donors. The in vitro potencies (IC50s) of the 44 compounds were then measured in the TR-FRET assay, affording seven compounds (1-7) with IC50s <50 μM (highlighted in red in FIGS. 2B & 2C).
# In vitro IC50 measurements: IC50 measurements for disruption of r(CCUG)12-MBNL1 complex was completed using a previously reported TR-FRET assay with minor modifications.^23, 24 Briefly, 5′-biotinylated r(CCUG)12 (SEQ ID NO: 15) was folded in 1× Folding Buffer (20 mM HEPES, pH 7.5, 110 mM KCl, and 10 mM NaCl) at 60° C. for 5 min then cooled to room temperature. The buffer was adjusted to 1× Assay Buffer (20 mM HEPES, pH 7.5, 110 mM KCl, 10 mM NaCl, 2 mM MgCl2, 2 mM CaCl2), 5 mM DTT. 0.1% BSA, and 0.5% Tween-20).
# Next, MBNL1-His6 was added, and the samples were incubated at room temperature for 15 min. […] The samples were incubated for 30 min at room temperature and added to a white 384-well plate, where TR-FRET was measured on a Molecular Devices SpectraMax M5 plate reader using an excitation wavelength of 345-nm and a 420-nm cutoff. The ratios of fluorescence intensity at 545 and 665 nm were calculated, and ratios in the absence of a compound and in the absence of RNA were used to calculate percent disruption. […]
# [formula] • where y is ratio of fluorescence intensities at 545 nm and 665 nm (F545/F665), x is the concentration of a compound, B is F545/F665 value at max FRET effect (solution has RNA and protein but no compound added); A is F545/F665 value at min FRET effect (solution has antibodies but no RNA, protein, or compound); and the IC50 is the concentration of a compound where half of the protein is displaced by a compound.
# [3] = system: IR exon 11 inclusion in wild-type fibroblasts; assay: IR exon 11 inclusion via RT-PCR in wild-type fibroblasts; assay type: cell-based
# Experimental: as §1
# as §3, with “RT-PCR products were observed after 35 cycles of 95° C. for 30 s, 58° C. for 30s, 72 °C for 1 min, and a final extension at 72° C. for 5 min. Products were separated on a 2% agarose gel (110 V for 1 h in 13TBE buffer), visualized by staining with ethidium bromide, and imaged using a Typhoon 9410 variable mode imager.” left out
# [4] = system: CNBP intron 1 in wild-type fibroblasts; assay: CNBP intron 1 levels via RT-qPCR in wild-type fibroblasts; assay type: cell-based
# Experimental: as §1, §2
# [5] = system: MAP4K4 exon 22a splicing (NOVA-dependent) in DM2 fibroblasts; assay: MAP4K4 exon 22a splicing via RT-PCR in DM2 fibroblasts; assay type: cell-based
# Experimental: as §1
# as §3, with “RT-PCR products were observed after 35 cycles of 95° C. for 30 s, 58° C. for 30s, 72 °C for 1 min, and a final extension at 72° C. for 5 min. Products were separated on a 2% agarose gel (110 V for 1 h in 13TBE buffer), visualized by staining with ethidium bromide, and imaged using a Typhoon 9410 variable mode imager.” left out
# [6] = system: DM2 patient-derived fibroblasts; assay: Cell viability by CellTiter-Glo; assay type: cell-based
# Experimental: as §1
# Evaluation of cell viability: Compound toxicity in DM2 fibroblasts was evaluated using a CellTiter-Glo Kit (Promega) as described in the manufacturer's protocol. Briefly, after 48 h treatment in 96-wells plates, 100 μL of the CellTiter-Glo reagent was added to each well. The plate was then incubated at room temperature for 10 min, and luminescence was measured using BioTek FLX-800 luminescence plate reader (n=6 replicates; 1 independent experiment).
# [7] = system: CNBP intron 1 in DM2 patient-derived fibroblasts; assay: CNBP intron 1 abundance via RT-qPCR in DM2 fibroblasts; assay type: cell-based; parameters: dose or concentration left out as unconfirmed
# Experimental: as §1, §2
smiles,measurement,setting,value
"Cc1ccc2nc(Nc3ccc4nc(C)sc4c3)nc(NCCCO)c2c1 [Compound 63, 3-((6-methyl-2-((2-methylbenzo[d]thiazol-6-yl)amino)quinazolin-4-yl)amino)propan-1-ol]",levels of CNBP mature mRNA,[1],did not affect
same,rescue of IR exon 11 splicing,[2]; at 1 μM,~30%
same,rescue of IR splicing,"[2]; at 1 μM dose, p=0.026",33±5
same,improvement of IR splicing,[2]; at 5 μM,significantly improved IR splicing
same,IC50,r(CCUG)12-MBNL1 complex,2200 ± 500 nM
same,effect on IR exon 11 inclusion,[3],did not affect; also recorded: no effect
same,effect on CNBP intron 1 levels,[4],no effect
same,effect on MAP4K4 exon 22a splicing,[5],did not affect; also recorded: does not affect
same,toxicity as stated in legend of FIG. 3C,[6]; DM2 fibroblasts,non-toxic
same,toxicity in DM2 patient-derived fibroblasts,[6]; at 5 μM,no toxicity
same,abundance of CNBP intron 1,[7],significantly reduced
